Data set [1] relates to KG-1 cells. As to the kind of experiment: MTT cytotoxicity, KG-1. Format: cell-based, human. The protocol:
(§1) FR-targeted liposomal doxorubicin (f-L-DOX) was evaluated for in vitro cytotoxicity in both FR (+) and FR (−) leukemia cells using a standard cell survival assay (MTT assay). FR-targeted liposomal-doxorubicin (f-L-DOX) was prepared as described above. F-L-DOX in vitro cytotoxicity was evaluated in two FR (+) cell lines [KG-1, an FR-β (+) human AML cell line, and L1210JF, an FR (+) subline of L1210 murine acute lymphocytic leukemia cell line] and two FR (−) cell lines [KG-1a, an FR-β (−) subline of KG-1, and FR (−) L1210 cells] using the survival assay. The cells were treated in quadruplicate with serial dilutions of f-L-DOX, non-targeted control L-DOX, or free DOX. Cell viability was determined and IC50 values were calculated. For KG-1 and KG-1a cells, the MTT assay was repeated with cells cultured in media containing 1 μM ATRA for 5-days.

Data set [2] concerns KG-1a cells. The data set can be described thus: MTT cytotoxicity, KG-1a. Format: cell-based, human. The protocol: as §1
Data set [3] deals with L1210JF cells. The data set can be described thus: MTT cytotoxicity, L1210JF. As to conditions: no ATRA. It is filed as cell-based, murine. As for the experimental part:
as §1

Data set [4] deals with L1210 cells. The data set can be described thus: MTT cytotoxicity, L1210. It is filed as cell-based, murine. As for the experimental part:
as §1

Data set [5] deals with L1210JF ascites tumor. The data set can be described thus: Survival of DBA/2 mice carrying L1210JF ascites tumor. As to conditions: i.p. on days 1, 5, 9; free DOX 3 mg/kg, L-DOX and f-L-DOX 5 mg/kg DOX. Format: in vivo, DBA/2J mice. The protocol:
The antileukemic therapeutic efficacy of f-L-DOX was evaluated in two FR (+) murine leukemia ascites tumor models. The first model consisted of DBA/2J mice with ascites tumors derived from intraperitoneally engrafted FR (+) murine lymphocytic leukemia L1210JF cells. Male mice (18-22 g, from Charles River, Wilmington, Mass.) were placed on a folate-deficient diet (AIN-93G from Dyets, Inc., PA) and for at least one week prior to leukemia cell inoculation. The mice, in groups of 8 animals, were injected intraperitoneally with 1×10^6 L1210JF cells on day 0. The animals then received three intraperitoneal injections (in 50 μL) of various drug formulations on days 1, 5, and 9. […] In the saline-treated group, no visible ascitic fluid began to develop until after one week.

Data set [6] has as its system KG-1 ascites tumor.
Description: Effect of f-L-DOX treatment on the survival of SCID mice carrying KG-1 ascites tumor. SCID mice inoculated intraperitoneally with KG-1 cells that were treated with saline, free DOX, L-DOX or f-L-DOX, with or without co-injection of ATRA. Animal survival was recorded starting from the day of tumor cell inoculation.
The therapeutic efficacy of f-L-DOX in a human leukemia murine ascites xenograft model was further tested. Female CB.17 SCID (scid/scid, 18-22 g) mice were inoculated intraperitoneally with human AML KG-1 cells, which express FR-β, to generate ascites tumors. KG-1 cells (1×10^6) grown in folate-deficient RPMI1640 media supplemented with 20% FBS were injected into the mice intraperitoneally on day 0. […] Peritoneal exudate cells were collected by peritoneal lavage with 5 mL Hanks' balanced salt solution (HBSS), pelleted and resuspended in RPMI1640 media. […] The tumor cells were inoculated into 8 groups of 8 mice. Four of the groups received daily intraperitoneal injections of 10 mg/kg of ATRA on days 1 through 5. The following formulations were administered as intraperitoneal injections on days 1, 5, and 9 (in 50 μL): 1) saline, 2) free DOX (3 mg/kg), 3) L-DOX (5 mg/kg), 4) f-L-DOX (5 mg/kg), 5) saline+ATRA, 6) free DOX+ATRA, 7) L-DOX+ATRA, and 8) f-L-DOX+ATRA. The body weight and survival of the animals were monitored daily during the course of the study.
In data set [7] the test system is KG-1 cells. As to the kind of experiment: Cellular uptake of calcein liposomes by flow cytometry, KG-1. It is filed as cell-based, human. As to conditions: 6S-5MeTHF at 10 μM. As for the experimental part:
Folate-coated liposomes with the composition DSPC/Chol/folate-PEG-DSPE (60:40:0.1, m/m) and entrapping calcein, a membrane impermeable fluorescent dye, (f-L-calcein) were prepared, using a modification of the procedure described above. Non-targeted calcein-containing liposomes (L-calcein), with essentially the same composition, minus folate-PEG-DSPE, were used as a control. FR (+) cell lines, human KG-1, CHO-FR-β, and murine L1210JF, and the FR (−) cell lines KG-1a, CHO-K1 and L1210 were used. FR-β expression on the cells was determined by flow cytometry using a receptor-specific antibody. For liposome binding studies, the cells were treated in triplicate with f-L-calcein (folate-conjugated liposomes containing calcein) or free L-calcein at 20 μM in media. The cells were then washed 3× with cold PBS and examined by […] (FIG. 3).
Data on cellular uptake of calcein-containing liposomes in the FR (+) KG-1, L1210JF and CHO-FR-β cells, and FR (−) KG-1a, L1210 and CHO-K1 controls are summarized in Table 2 below.
In order to examine the potential effect of physiological folate on FR-mediated drug delivery in FR-β (+) cells, f-L-calcein uptake was measured in KG-1 cells in the presence of 0-10 μM 6S-5-methyltetrahydrofolate (6S-5MeTHF) using the same flow cytometry method as described above.

The test system of data set [8] is FR-β. As to conditions: cited from earlier work.
Data set [9] concerns FR-β expression. The data set can be described thus: ATRA induction of FR-β in AML blasts from patient marrow (Western blot). It is filed as cell-based, human. As to conditions: myeloid leukemia cells from patient bone marrow, in vitro, ATRA 1 μmol/L. As for the experimental part: FIG. 5. ATRA induction of FR-β in AML blasts from patient marrow. Cells (1×10^6) were cultured and treated with or without ATRA (1 μmol/L) for 6 hours (A and B), 24 hours (C), or 5 days (D). The samples were obtained from separate patients with FAB-M2 (A and C) or FAB-M4 (B and D) type AML. Cell lysates were then examined by Western blot and the use of rabbit anti-FR-β- and AP conjugated antibodies.
In one study, FR-β expression was elevated up to 20-fold by ATRA in KG-1 myeloid leukemia cells in a dose-dependent and reversible manner in the absence of terminal differentiation or cell growth inhibition (FIG. 4). The retinoid-induced increase in FR-β expression occurred in these cells without causing terminal differentiation or growth inhibition of the cells. In addition, ATRA increased FR-β expression in vitro in myeloid leukemia cells from patient bone marrow (FIG. 5). ATRA-induction of FR-β occurred even though primary AML blast cells (M2 and M4 type AMLs) are known to be refractory to ATRA differentiation therapy. […] In addition, FR-β inducers can modulate FR-β expression in AML cells refractory to retinoid differentiation therapy.
Background: In western blotting, separated proteins are transferred to a membrane and probed.

Data set [10] deals with acute promyelocytic leukemia (PML). The conditions noted are these: PML patients; cited from earlier work.
The subject of data set [11] is FR-β expression.
The subject of data set [12] is CMLs. The conditions noted are these: in vivo; cited from earlier work.
Data set [13] has as its system FR-β (+) AML cells. As to the kind of experiment: [3H] folic acid binding to FR-β (+) AML cells. Also noted: species or system human.

pIC50: −log10 of the molar value. Where two headings read alike, the source gives them in different places. Bounds are passed on as bounds.

As a reminder, the pIC50 is −log10 of the IC50, conventionally taken in molar units. High values mean a small IC50, low ones a large IC50. Consider `COc1cccc2c1C(=O)c1c(O)c3c(c(O)c1C2=O)C[C@@](O)(C(=O)CO)C[C@@H]3O[C@H]1C[C@H](N)[C@H](O)[C@H](C)O1` [Free DOX, doxorubicin], for which the pIC50 in data set [1] (KG-1, FR-β (+), no ATRA, folate-free media) is 6.19; in [1] (KG-1, FR-β (+), pre-exposure to ATRA, folate-free media), 6.20; in data set [1] (KG-1, no ATRA, media containing 1 mM folic acid), 6.17; in [1] (KG-1, pre-exposure to ATRA, media containing 1 mM folic acid), 6.17; in [2] (FR (−), no ATRA, folate-free media), 6.21; in [2] (FR (−), pre-exposure to ATRA, folate-free media) it was 6.23. Besides, the pIC50 in data set [2] (no ATRA, media containing 1 mM folic acid) is 6.20; in data set [2] (pre-exposure to ATRA, media containing 1 mM folic acid), 6.21; in data set [3] (FR-α (+), folate-free media), 6.07; in data set [3] (media containing 1 mM folic acid) it was 6.06; in data set [4] (L1210, FR (−), no ATRA, folate-free media), 6.04; in data set [4] (L1210, no ATRA, media containing 1 mM folic acid), 6.03. In data set [5], this compound gave a median survival time of 28.5 days. The dose-limiting toxicity in [6] (mice, results not shown) was over 3 mg/kg.

Turning to `CN1c2c(nc(N)[nH]c2=O)NC[C@@H]1CNc1ccc(C(=O)N[C@@H](CCC(=O)O)C(=O)O)cc1` [6S-5MeTHF, 6S-5-methyltetrahydrofolate], the “inhibition of f-L-calcein uptake” value in [7] was “did not significantly inhibit”. In addition, the “affinity of FR-β lower than for folic acid” value in data set [8] is recorded as about 35 ×.

On to `CC1=C(/C=C/C(C)=C/C=C/C(C)=C/C(=O)O)C(C)(C)CCC1` [ATRA, all-trans retinoic acid], for which the FR-β expression result in [9] is “increased”; in data set [11] (KG-1 cells, flow cytometry, 5-day exposure to ATRA (1 μM)), “significant increase”. For the same compound, in data set [10], the Complete remission was 72-95%. In addition, the survival entry in data set [6] (ATRA treatment in the absence of f-L-DOX or L-DOX) is recorded as “did not enhance survival”. Besides, in [11] (KG-1 myeloid leukemia cells, dose-dependent, reversible), the FR-β expression elevated entry was “up to 20 fold”.

Consider `CS(=O)(=O)O.Cc1ccc(NC(=O)c2ccc(CN3CCN(C)CC3)cc2)cc1Nc1nccc(-c2cccnc2)n1` [Gleevec™], for which the “effective against CMLs” value in data set [12] is listed as 90%.

For `Nc1nc2ncc(CNc3ccc(C(=O)N[C@@H](CCC(=O)O)C(=O)O)cc3)nc2c(=O)[nH]1` [folic acid], the “[3H] folic acid bound” value in [13] came out at 0.72±0.13 pmoles per 10^6 cells.

Source of the values: patent US20030170299A1, “Therapeutic methods for acute myeloid leukemia” (priority 2002, published 2003).
